Assay results from patent publication US20030228357A1, “Dry granulated formulations of azithromycin” (Pfizer Inc., priority 2002, published 2003).

Test: Density and Carr's Compressibility Index (flowability) of dry blends and dry granulations
Type: physicochemical
Text: Carr's Compressibility Index was used to evaluate the flowability of the four dry granulations. Carr's Compressibility Index is a simple test to evaluate flowability by comparing both the initial and final (tapped) bulk volumes and the rate of packing down. A useful empirical guide to flow is given by Carr's compressibility index: Compressibility Index(%)=[(tapped density−initial density)/tapped density]×100 […] The procedure is described in Int. J. Pharm. Tech. & Prod. Mfr., 6(3) 10-16, 1985.

[1] = 35.2 wt % azithromycin, dicalcium phosphate anhydrous diluent, Long blend method
[2] = 35.2 wt % azithromycin, dicalcium phosphate anhydrous diluent, Long blend method, slugged
[3] = 35.2 wt % azithromycin, dicalcium phosphate anhydrous diluent, Short blend method
[4] = 35.2 wt % azithromycin, dicalcium phosphate anhydrous diluent, Short blend method, slugged
[5] = Table 3A, low drug loading: 35.2 wt % azithromycin, 54.8 wt % dicalcium phosphate anhydrous, long blend
[6] = Table 3B, high drug loading: 58.2 wt % azithromycin, 31.8 wt % dicalcium phosphate anhydrous, long blend
[7] = Table 4A, low drug loading (35.2 wt % azithromycin), diluent DCP, anhyd.
[8] = Table 4A, low drug loading (35.2 wt % azithromycin), diluent DCP, dihyd.
[9] = Table 4B, high drug loading (58.2 wt % azithromycin), diluent DCP, anhyd.
[10] = Table 4B, high drug loading (58.2 wt % azithromycin), diluent DCP, dihyd.
[11] = Table 7, milled Form A lot, 58.2 wt % azithromycin, DCP anhydrous
[12] = Table 7, unmilled Form A lot, 58.2 wt % azithromycin, DCP anhydrous
[13] = Table 7A, 55.76 wt % azithromycin, lactose anhydrous, corn starch, roller compaction 850 psi, dihydrate
[14] = Table 7 Lot 1, milled, roller compaction, Roll Pressure Setting 850 psi
[15] = Table 7 Lot 2, milled, roller compaction, Roll Pressure Setting 300 psi
[16] = Table 7 Lot 3, unmilled, roller compaction, Roll Pressure Setting 500 psi
[17] = Table 7 Lot 4, unmilled, roller compaction, Roll Pressure Setting 300 psi

Dry Blend Carr's Index [1]: 44%
Dry Blend density As Is [1]: 0.59 g/cc
Dry Blend density Tapped [1]: 1.05 g/cc
Granulation Carr's Index [2]: 26%
Granulation Density As Is [2]: 0.88 g/cc
Granulation Density Tapped [2]: 1.19 g/cc
Dry Blend Carr's Index [3]: 43%
Dry Blend density As Is [3]: 0.59 g/cc
Dry Blend density Tapped [3]: 1.04 g/cc
Granulation Carr's Index [4]: 32%
Granulation Density As Is [4]: 0.78 g/cc
Granulation Density Tapped [4]: 1.14 g/cc
Granulation Carr's Index [5]: 26%
Granulation Density As Is [5]: 0.89 g/cc
Granulation Density Tapped [5]: 1.19 g/cc
Granulation Carr's Index [6]: 30%
Granulation Density As Is [6]: 0.67 g/cc
Granulation Density Tapped [6]: 0.96 g/cc
Dry Granulation Carr's Index [7]: 26%
Dry Granulation Density As Is [7]: 0.89 g/cc
Dry Granulation Density Tapped [7]: 1.19 g/cc
Dry Granulation Carr's Index [8]: 18%
Dry Granulation Density As Is [8]: 0.84 g/cc
Dry Granulation Density Tapped [8]: 1.04 g/cc
Dry Granulation Carr's Index [9]: 30%
Dry Granulation Density As Is [9]: 0.67 g/cc
Dry Granulation Density Tapped [9]: 0.96 g/cc
Dry Granulation Carr's Index [10]: 25%
Dry Granulation Density As Is [10]: 0.69 g/cc
Dry Granulation Density Tapped [10]: 0.92 g/cc
Dry Blend Carr's Index [11]: 47%
Dry Blend density As Is [11]: 0.49 g/cc
Dry Blend density Tapped [11]: 0.92 g/cc
Dry Blend Carr's Index [12]: 44%
Dry Blend density As Is [12]: 0.57 g/cc
Dry Blend density Tapped [12]: 1.01 g/cc
Dry Granulation Density Tapped (Table 7A, 55.76 wt % azithromycin, lactose anhydrous, corn starch, roller compaction 850 psi): 0.86 g/cc
Dry Granulation Carr's Index [13]: 24%
Dry Granulation Density As Is [13]: 0.66 g/cc
Dry Granulation Carr's Index [14]: 39%
Dry Granulation Density As Is [14]: 0.55 g/cc
Dry Granulation Density Tapped [14]: 0.91 g/cc
Dry Granulation Carr's Index [15]: 33%
Dry Granulation Density As Is [15]: 0.60 g/cc
Dry Granulation Density Tapped [15]: 0.90 g/cc
Dry Granulation Carr's Index [16]: 30%
Dry Granulation Density As Is [16]: 0.64 g/cc
Dry Granulation Density Tapped [16]: 0.92 g/cc
Dry Granulation Carr's Index [17]: 26%
Dry Granulation Density As Is [17]: 0.66 g/cc
Dry Granulation Density Tapped [17]: 0.92 g/cc
SMILES: CC[C@H]1OC(=O)[C@H](C)[C@@H](O[C@H]2C[C@@](C)(OC)[C@@H](O)[C@H](C)O2)[C@H](C)[C@@H](O[C@@H]2O[C@H](C)C[C@H](N(C)C)[C@H]2O)[C@](C)(O)C[C@@H](C)CN(C)[C@H](C)[C@@H](O)[C@]1(C)O [Form A, azithromycin dihydrate, reference compound]
